The results in this text go back to patent publication US10155802B2, “Locally-active anticoagulants and anti-inflammatory agents” (priority 2011, dated 2018).

One test addresses T1, Human α-thrombin (Homo sapiens, UniProt P00734).
T1 construct: Human α-thrombin was purchased from Haemotologic Technologies, Inc., VT, USA; purchased Haemotologic Technologies, Inc., VT, USA
The test can be described thus: Inhibition of thrombin-catalyzed hydrolysis of chromogenic substrate S-2366 (inhibition constant Ki). The class given is biochemical.

The target in the next test is thrombin (Homo sapiens, UniProt P00734). Put plainly: Cleavage of thrombin-sensitive peptides catalyzed by thrombin, followed by HPLC. Set-up: rapidly converts prothrombin into the ultimate protease thrombin. Conditions: 75 μM peptide, 23 nM thrombin, pH 7.6, 37° C. The class given is biochemical.

As a reminder, the pKi is the negative decadic logarithm of the Ki, by convention in mol/L. Higher therefore signals a small Ki.

pKi: −log10 of the molar value. Where “and” joins values, the source holds several entries; their conditions need not be identical. Identical values can stand only once.

`CC[C@H](C)[C@H](NC(=O)[C@H](CCC(=O)O)NC(=O)[C@H](CCC(=O)O)NC(=O)[C@H](Cc1ccccc1)NC(=O)[C@H](CC(=O)O)NC(=O)CNC(=O)[C@H](CCC(=O)O)NC(=O)[C@@H](NC(=O)[C@H](Cc1c[nH]c2ccccc12)NC(=O)[C@@H](NC(=O)[C@H](Cc1c[nH]c2ccccc12)NC(=O)[C@@H](NC(=O)[C@H](CCCCN)NC(=O)[C@@H](NC(=O)[C@H](C)NC(=O)[C@H](CC(=O)O)NC(=O)[C@H](CC(=O)O)NC(=O)[C@H](Cc1c[nH]c2ccccc12)NC(=O)[C@@H](NC(=O)[C@H](Cc1c[nH]c2ccccc12)NC(=O)[C@H](CCC(=O)O)NC(=O)CNC(=O)[C@H](CC(=O)O)NC(=O)[C@@H](NC(=O)[C@H](Cc1ccccc1)NC(=O)[C@H](CCCNC(=N)N)NC(=O)[C@@H]1CCCN1C(=O)[C@H](CCCNC(=N)N)NC(=O)[C@@H]1CCCN1C(=O)[C@H](N)Cc1ccccc1)[C@@H](C)O)[C@@H](C)O)[C@@H](C)O)[C@@H](C)O)[C@@H](C)O)[C@@H](C)O)C(=O)N1CCC[C@H]1C(=O)N[C@@H](CCC(=O)O)C(=O)N[C@@H](CCC(=O)O)C(=O)N[C@@H](Cc1ccc(O)cc1)C(=O)N[C@@H](CC(C)C)C(=O)O` [BRI-T208]: at Human α-thrombin, the “reduction of Ki as compared to BRI-T207” value is “about 13 fold” and the “reduction of Ki as compared to MH2-wZIP4” value was “approximately 5 fold”. Moreover, the negative-log Ki (pKi) at Human α-thrombin (Ki, T = 37° C., enzyme kinetics, chromogenic substrate) is ~7.55 and 7.55. Also, the cleavage by thrombin entry on thrombin was “significantly more resistant to thrombin cleavage than BRI-T218”.
